Test results: patent publication US20250268920A1, “USE OF ANDROGEN RECEPTOR-MEDIATED MECHANISMS IN THE TREATMENT OF ACUTE MYELOID LEUKEMIA” (The Penn State Research Foundation, priority 2022, published 2025)
Like-named read-outs stand apart in the source and are kept apart here.

How the values were obtained:
[1] = tested on: female AML donor cells; format: in vivo, mice
Description: (§1) To obtain the results shown in FIG. 1, we isolated bone marrow cells from CD45.1 male mice (FIG. 1A) and CD45.1 female mice (FIG. 1B). Bone marrow cells were applied to hematopoietic stem/progenitor cell isolation using a kit (EasySep™ mouse hematopoietic progenitor cell isolation kit, […], Catalog #19856) followed by red blood cell lysis. Lineage negative (Lin^−) cells were stained with fluorescent antibodies including Sca-1 and c-Kit and then sent to a Beckman Coulter MoFlo Astrios EQ Cell Sorter for sorting Sca-1^+c-Kit^+ cells. These cells were cultured in a CO2 incubator at 37° C. in the presence of MLL-AF9 virus (for AML) for six hours and then injected retro-orbitally into CD45.2 recipient mice. Recipients received sublethal irradiation (475 rads) and 1.5˜3.5×10^5 Lin^−Sca-1^+c-Kit^+ hematopoietic stem cells (HSCs). Mice were monitored for complete cell counts by bleeding retro-orbitally one month post transplantation. Retro-orbital bleeding was performed weekly.
To test the effect of AR inhibition on the outcome of AML, we utilized the AR antagonist, ARN509, to treat female mice transplanted with female AML donor cells. (FIG. 7A) Following one week post-secondary) (2° transplantation of AML cells from female donors into female recipients, the recipient mice were treated with ARN509 (0, 10, 25 mg/kg/d, i.p. injection) daily for two weeks.

[2] = tested on: female AML cells; assay: In vitro apoptosis of female AML cells (Annexin V staining); format: cell-based, mouse; details: Annexin V staining (FIG. 4B, 4C)
Description: as §1
(§2) To obtain the results, isolated female AML cells were treated in vitro with PI3K inhibitors (LY294002 and Wortmannin), Akt inhibitor, MTOR inhibitors (Sapanisertib and Torin1).

[3] = tested on: female AML donor cells; format: in vivo, mice; remark: listed apart in the source
Description: as §1
To address if ARN509 therapy preferentially benefitted AML in female mice, we performed an experiment in which male recipient mice transplanted with female AML donors cells were treated with AR antagonist, ARN509.
(FIG. 8A) Following one week post 2° transplantation of AML cells from female donors into male recipients, we treated the mice with ARN509 (0, 10, 25 mg/kg/d, i.p. injection) for two weeks.

[4] = tested on: female AML donor cells; assay: In vivo ARN509 alone or combined with finasteride in male mice transplanted with female AML donor cells; details: single ARN509 10 mg/kg/d i.p. for two weeks; male recipients
Method: (FIG. 11A) At one week post 2° transplantation of female AML donors into male recipients, the mice were treated with vehicle (PBS), ARN509 (10 mg/kg/d, i.p. injection), or combination of ARN509 (10 mg/kg/d, i.p. injection) and finasteride (20 mg/kg/d, i.p. injection), for two weeks.

[5] = tested on: female AML donor cells; assay: Survival of female recipients transplanted with female AML donors treated in vitro with ARN509; format: in vivo, mice; details: female AML donors treated in vitro with ARN509 150 nM, 24 h, transplanted into female recipients (FIG. 7J)
[6] = tested on: female AML donor cells; assay: Survival of male recipients transplanted with female AML donors treated in vitro with ARN509; format: in vivo, mice; details: female AML donors treated in vitro with ARN509 150 nM, 24 h, transplanted into male recipients (FIG. 8J)
[7] = tested on: P70 S6K; assay: In vitro treatment of female AML cells: phosphorylation of downstream target P70 S6K; format: cell-based, mouse; details: isolated female AML cells treated in vitro (FIG. 4A)
Description: as §1, §2

[8] = tested on: male AML donor cells; assay: In vivo finasteride treatment of male mice transplanted with male AML donor cells; details: for Survival: male AML donors (FIG. 10J)
Description: as §1
(FIG. 10A) Upon 2° transplantation of male AML donors to male recipients, the recipient mice were treated with vehicle (PBS) or finasteride (50 mg/kg/d, i.p. injection) for one week. Then at three weeks post transplantation, mice were euthanized. […] Moreover, to observe the therapeutic effect of finasteride, we treated male recipients transplanted with male AML donors (mirroring the clinical patients) with in vivo finasteride for two weeks or extended it to four weeks (FIG. 10I). […] Thus, the disclosure includes adjusting the treatment period for male (and female) AML patients.

[9] = tested on: female AML donor cells; assay: In vivo finasteride treatment of female mice transplanted with female AML donor cells
Method: To mirror the patient scenario, we performed the experiment on female recipients transplanted with female AML donor cells.
(FIG. 12A) At one week after 2° transplantation of female AML donors to female recipients, we treated the mice with vehicle (PBS) or finasteride (20 mg/kg/d, i.p. injection) for two weeks.

[10] = finasteride 50 mg/kg/d i.p. for one week, male recipients
[11] = finasteride 20 mg/kg/d i.p. for two weeks, female recipients

Question: `CNC(=O)c1ccc(N2C(=S)N(c3cnc(C#N)c(C(F)(F)F)c3)C(=O)C23CCC3)cc1F` [ARN509, Apalutamide] was tested. Which “Lin− leukemic cells in the bone marrow” value ([1]; 25 mg/kg/d ARN509, female recipients (FIG. 7D)) did it give?
Answer: decreased significantly

Question: What about the “Lin− leukemic cells in the spleen” value ([1]; 25 mg/kg/d ARN509, female recipients (FIG. 7E)) of the same molecule?
Answer: decreased significantly

Question: And the “LICs (leukemia-initiating cells)” value ([1]; 25 mg/kg/d ARN509, female recipients (FIG. 7F, 7G))?
Answer: decreased significantly

Question: What about the “Severity of AML” value ([1]; ARN509 0, 10, 25 mg/kg/d i.p. daily for two weeks from one week post transplantation, female recipients) of the same molecule?
Answer: decreased the severity of AML in a dose-dependent manner

Question: What about the Leukocytosis ([1]; ARN509 0, 10, 25 mg/kg/d i.p., two weeks, female recipients (FIG. 7B)) of the same molecule?
Answer: improved leukocytosis

Question: What about the Splenomegaly ([1]; ARN509 0, 10, 25 mg/kg/d i.p., two weeks, female recipients (FIG. 7C)) of the same molecule?
Answer: improved

Question: And the “Platelets in the peripheral blood” value ([1]; mouse, in vivo)?
Answer: increase

Question: And the Side effects ([1]; mouse, in vivo)?
Answer: no apparent side effects

Question: What about the “Apoptosis of female AML cells” value [2] of the same molecule?
Answer: led to apoptosis of female AML cells

Question: And the “Lin− leukemic cells in the bone marrow” value ([3]; 25 mg/kg/d ARN509, male recipients (FIG. 8D))?
Answer: decreased significantly

Question: And the “Lin− leukemic cells in the spleen” value ([3]; 25 mg/kg/d ARN509, male recipients (FIG. 8E))?
Answer: decreased significantly

Question: What about the “LICs (leukemia-initiating cells)” value ([3]; 25 mg/kg/d ARN509, male recipients (FIG. 8F, 8G)) of the same molecule?
Answer: decreased significantly

Question: And the “Severity of AML” value ([3]; ARN509 0, 10, 25 mg/kg/d i.p. for two weeks from one week post transplantation, male recipients)?
Answer: decreased the severity of AML in a dose-dependent manner

Question: And the Leukocytosis ([3]; ARN509 0, 10, 25 mg/kg/d i.p., two weeks, male recipients (FIG. 8B))?
Answer: improved leukocytosis

Question: What about the Splenomegaly ([3]; ARN509 0, 10, 25 mg/kg/d i.p., two weeks, male recipients (FIG. 8C)) of the same molecule?
Answer: improved

Question: And the Body weight ([3]; mouse, in vivo)?
Answer: unchanged

Question: And the “Platelets in the peripheral blood” value ([3]; mouse, in vivo)?
Answer: increase

Question: What about the Side effects ([3]; mouse, in vivo) of the same molecule?
Answer: no apparent side effects

Question: And the Anti-leukemic effect [4]?
Answer: not able to induce significant anti-leukemic effect

Question: What about the Survival [5] of the same molecule?
Answer: significantly better survival

Question: What about the Survival [6] of the same molecule?
Answer: some improvement of survival

Question: Which “Apoptosis of female AML cells” value [2] does the source give for `CCC(=O)N1CCN(c2ccc(-n3c(=O)ccc4cnc5ccc(-c6cnc7ccccc7c6)cc5c43)cc2C(F)(F)F)CC1` [Torin1] here?
Answer: induced apoptosis of female AML cells significantly

Question: And the “Phosphorylation of the downstream target P70 S6K” value [7]?
Answer: down-regulated

Question: How did the “Generation of DHT” value ([8]; finasteride 50 mg/kg/d i.p. for one week, euthanized three weeks post transplantation (FIG. 10B)) turn out when `CC(C)(C)NC(=O)[C@H]1CC[C@H]2[C@@H]3CC[C@H]4NC(=O)C=C[C@]4(C)[C@H]3CC[C@]12C` [finasteride, Finasteride] was run?
Answer: decreased generation of DHT

Question: And the “LICs in the bone marrow” value [8, 10]?
Answer: decreased

Question: And the “LICs in the spleen” value [8, 10]?
Answer: decreased

Question: What about the “Lin− leukemic cells in the bone marrow” value [8, 10] of the same molecule?
Answer: decreased

Question: And the “Lin− leukemic cells in the spleen” value [8, 10]?
Answer: decreased

Question: And the Leukocytosis ([8]; finasteride 50 mg/kg/d i.p. for one week, male recipients (FIG. 10C))?
Answer: significantly improved

Question: What about the Splenomegaly ([8]; finasteride 50 mg/kg/d i.p. for one week, male recipients (FIG. 10D)) of the same molecule?
Answer: significantly improved

Question: What about the Survival ([8]; four-week in vivo finasteride treatment, male recipients) of the same molecule?
Answer: significantly improved the survival

Question: And the Survival ([8]; two-week in vivo finasteride treatment, male recipients)?
Answer: partially benefited the survival

Question: And the Leukocytosis ([9]; finasteride 20 mg/kg/d i.p. for two weeks from one week after transplantation, female recipients (FIG. 12B))?
Answer: significantly improve

Question: What about the “LICs in the bone marrow” value [9, 11] of the same molecule?
Answer: decreased

Question: What about the “LICs in the spleen” value [9, 11] of the same molecule?
Answer: decreased

Question: What about the “Lin− leukemic cells in the bone marrow” value [9, 11] of the same molecule?
Answer: decreased

Question: What about the “Lin− leukemic cells in the spleen” value [9, 11] of the same molecule?
Answer: decreased

Question: What about the Splenomegaly ([9]; finasteride 20 mg/kg/d i.p. for two weeks, female recipients (FIG. 12C)) of the same molecule?
Answer: significantly improve

Question: And the Survival ([9]; in vivo finasteride treatment, female recipients, female AML donors (FIG. 12K))?
Answer: benefitted the survival
